Several values for one entry are separate records, joined by “and”; a condition that tells them apart may be missing. Equal entries are not always repeated.
How the values were obtained:
P. berghei-infected mice = conditions: antimalarials in clinical trials; cited from earlier work
P. berghei-GFP = test: In vivo efficacy, modified Thompson test
[1] = assay type: in vivo
P. falciparum = test: In vitro antimalarial activity as summarised in text; assay type: cell-based
[2] = Aqueous stability / parent compound release by quantitative HPLC; assay type: physicochemical; conditions: for parent compound released: release of parent compound 4
[3] = tested on: P. falciparum clone W2/Indochina (chloroquine and pyrimethamine resistant); test: In vitro antimalarial activity, 3H-hypoxanthine incorporation, W2; assay type: cell-based; conditions: Table 2; means of at least two independent experiments
[4] = tested on: P. falciparum TM90-C2B/Thailand (chloroquine, mefloquine, pyrimethamine, and atovaquone resistant); test: In vitro antimalarial activity, 3H-hypoxanthine incorporation, TM90-C2B; assay type: cell-based; conditions: Table 2; means of at least two independent experiments

C[C@H]1Cc2c([nH]c3cc(Cl)c(F)cc23)[C@@]2(N1)C(=O)Nc1ccc(Cl)cc12 [KAE609]
single oral (PO) curative dose, single exposure radical cure (P. berghei-infected mice): 100 mg/kg

CS(=O)(=O)c1ccc(-c2cnc(N)c(-c3ccc(C(F)(F)F)nc3)c2)cc1 [MMV390048]
single oral (PO) curative dose, single exposure radical cure (P. berghei-infected mice): 30 mg/kg

c1cc([C@H]2CC[C@]3(CC2)OOC2(O3)C3CC4CC(C3)CC2C4)ccc1OCCN1CCOCC1 (stereo partly shown) [OZ439]
single oral (PO) curative dose, single exposure radical cure (P. berghei-infected mice): 20 mg/kg

COc1cc2[nH]c(C)c(-c3ccc(Oc4ccc(OC(F)(F)F)cc4)cc3F)c(=O)c2cc1Cl [compound 2, 6-chloro-3-(2-fluoro-4-(4-(trifluoromethoxy)phenoxy)phenyl)-7-methoxy-2-methyl-4(1H)-quinolone]
in vivo activity (P. berghei-GFP; single dose of 10 mg/kg, 0.5% aqueous HEC): completely inactive

COc1cc2[nH]c(C)c(-c3ccc(C(F)(F)F)cc3)c(=O)c2cc1Cl [compound 4, 6-chloro-7-methoxy-2-methyl-3-(4-(trifluoromethyl)phenyl)-4(1H)-quinolone]
Tmax ([1]; plasma, po, 50 mg/kg): 2 h | maximum plasma concentration of 4 ([1]; single oral 50 mg/kg of 4, 0.5% aqueous HEC): 365 nM

CCOC(=O)Oc1c(-c2ccccc2C)c(C)nc2cc(OC)c(Cl)cc12 [compound 11, 6-Chloro-7-methoxy-2-methyl-3-(o-tolyl)-4-((ethoxycarbonyl)oxy)quinoline]
fold less potent than reference compound 3 (P. falciparum; in vitro antimalarial activity, Table 1): 10 fold

CN1CCCOC1=O [compound 13, 3-Methyl-1,3-oxazinan-2-one]
EC50 (P. falciparum; Plasmodium falciparum): > 4 µM

CNCCOC(=O)OCOc1c(-c2ccc(C(F)(F)F)cc2)c(C)nc2cc(OC)c(Cl)cc12.Cl [compound 27, 6-Chloro-7-methoxy-2-methyl-3-(4-(trifluoromethyl)phenyl)-4-(((2-(methylammonio)ethoxycarbonyl)oxy)methoxy)quinoline, chloride salt]
parent compound released ([2]; in 1 h at pH 7.0): > 90% | parent compound released ([2]; in 10 h at pH 4.0): > 25%

CNCCCOC(=O)OCOc1c(-c2ccc(C(F)(F)F)cc2)c(C)nc2cc(OC)c(Cl)cc12.Cl [compound 28, 6-Chloro-7-methoxy-2-methyl-3-(4-(trifluoromethyl)phenyl)-4-(((3-(methylammonio)propyloxycarbonyl)oxy)methoxy)quinoline, chloride salt]
parent compound released ([2]; in 5 h at pH 7.0): > 55% | stability at low pH values ([2]; low pH values): stable | Suppression [%] day 6 PI ± S.D. (P. berghei-GFP; 10 mg/kg PO once a day on days 3–5 PI, 0.5% aqueous HEC, mice): 82 ± 0.6% | extension of life span of treated animals relative to untreated controls (P. berghei-GFP; 10 and 50 mg/kg PO days 3–5 PI): does not significantly extend

CNCCCOC(=O)OCOc1c(-c2ccc(Oc3ccc(OC(F)(F)F)cc3)cc2F)c(C)nc2cc(OC)c(Cl)cc12.Cl [compound 30, 6-Chloro-7-methoxy-2-methyl-3-(2-fluoro-4-(4-(trifluoromethoxy)phenoxy)phenyl)-4-(((3-(methylammonio)propyloxycarbonyl)oxy)methoxy)quinoline, chloride salt]
single oral dose producing cures (P. berghei-GFP; P. berghei-infected mice, single dose, no advanced formulation): 3 mg/kg | average day of death (P. berghei-GFP; single dose 1 mg/kg PO, all 5 mice): > 13 days | number of cures (P. berghei-GFP; single dose 3 mg/kg PO on day 3 PI, 3 mg/kg): 5 out of 5 and 5/5 | number of cures (P. berghei-GFP; single dose 10 mg/kg PO on day 3 PI, 10 mg/kg): 5 out of 5 and 5/5 | clearance ([1]; single oral administration, 0.5% aqueous HEC): low clearance

formaldehyde [compound 14]
W2 pEC50 [3]: inactive | C2B pEC50 [4]: inactive | EC50 (P. falciparum; release byproducts, devoid of antimalarial activity): > 4 µM

From article PMC8904075 (Journal of medicinal chemistry, 2021)
